Test results reported in ChEMBL document CHEMBL4043071, “Neuroprotective Caffeoylquinic Acid Derivatives from the Flowers of Chrysanthemum morifolium” (J Nat Prod, 2017).
The source made the active and inactive calls. The rule behind the calls is not given here.

What was measured:
[1] = system: SH-SY5Y; test: Neuroprotective activity in human SH-SY5Y cells assessed as reduction in hydrogen peroxide-induced cytotoxicity by measuring cell viability level at 10 uM (reference value: 50.7+/- 2.6%); assay type: functional
[2] = system: SH-SY5Y; test: Neuroprotective activity in human SH-SY5Y cells assessed as reduction in oxygen-glucose deprivation-induced cytotoxicity at 10 uM relative to untreated control; assay type: functional, cell-based
[3] = system: SH-SY5Y; test: Neuroprotective activity in human SH-SY5Y cells assessed as reduction in glutamate-induced cytotoxicity at 10 uM relative to untreated control; assay type: functional, cell-based
[4] = system: SH-SY5Y; test: Cytotoxicity against human SH-SY5Y cells assessed as reduction in cell viability level at 10 uM relative to untreated control; assay type: cell-based

In the case of O=c1cc(-c2ccc(O)c(O)c2)oc2cc(O[C@@H]3O[C@H](CO)[C@@H](O)[C@H](O)[C@H]3O)cc(O)c12 [GALUTEOLIN], the Activity [1] is reported as 87.6%, the Activity [2] is reported as “inactive” and the Activity [3] is reported as “inactive”.

In the case of O=c1cc(-c2ccc(O[C@@H]3O[C@H](CO)[C@@H](O)[C@H](O)[C@H]3O)c(O)c2)oc2cc(O[C@@H]3O[C@H](CO)[C@@H](O)[C@H](O)[C@H]3O)cc(O)c12, the Activity [2] is reported as “inactive” and the Activity [3] is reported as “inactive”.

O=C(/C=C/c1ccc(O)c(O)c1)O[C@@H]1C[C@@](OC(=O)/C=C/c2ccc(O)c(O)c2)(C(=O)O)C[C@@H](O)[C@@H]1O [CYNARIN] was tested, and the Activity [1] was 77.2%, the Activity [2] was “inactive” and the Activity [3] was “inactive”.

In the case of COc1ccc(-c2cc(=O)c3c(O)cc(O[C@@H]4O[C@H](CO)[C@@H](O)[C@H](O)[C@H]4O)cc3o2)cc1O, the Activity [2] is reported as “inactive” and the Activity [3] is reported as “inactive”.

O=C(/C=C/c1ccc(O)c(O)c1)O[C@@H]1[C@H](O)C[C@@](O)(C(=O)O)C[C@H]1OC(=O)[C@@H]1[C@@H](c2ccc(O)c(O)c2)[C@@]2(CO)C=CC(=O)[C@@H]1O2 was tested, and the Activity [1] was 78.4%, the Activity [2] was “inactive” and the Activity [3] was “inactive”.

In the case of O=C(/C=C/c1ccc(O)c(O)c1)O[C@@H]1[C@H](O)C[C@@](O)(C(=O)O)C[C@H]1OC(=O)/C=C/c1ccc(O)c(O)c1, the Activity [1] is reported as 75.2%, the Activity [2] is reported as “inactive” and the Activity [3] is reported as “inactive”.

For O=C(/C=C/c1ccc(O)c(O)c1)O[C@@H]1[C@H](O)C[C@@](O)(C(=O)O)C[C@H]1OC(=O)[C@@H]1[C@@H]2O[C@@](CO)(C=CC2=O)[C@H]1c1ccc(O)c(O)c1, the Activity [1] was 76.7%, the Activity [2] was “inactive” and the Activity [3] was “inactive”.

For CC(=O)O[C@@H]1[C@H](O)C[C@@](O)(C(=O)O)C[C@H]1OC(=O)/C=C/c1ccc(O)c(O)c1, the Activity [2] was “inactive”, the Activity [3] was “inactive” and the Activity [4] was “Toxic”.

In the case of O=c1cc(-c2ccc(O)cc2)oc2cc(O[C@@H]3O[C@H](CO)[C@@H](O)[C@H](O)[C@H]3O)cc(O)c12, the Activity [2] is reported as “inactive” and the Activity [3] is reported as “inactive”.

O=C(/C=C/c1ccc(O)c(O)c1)O[C@@H]1C[C@@](O)(C(=O)O)C[C@@H](O)[C@@H]1OC(=O)[C@@H]1[C@@H](c2ccc(O)c(O)c2)[C@@]2(CO)C=CC(=O)[C@@H]1O2 was tested, and the Activity [1] was 75.6%, the Activity [2] was “inactive” and the Activity [3] was “inactive”.

O=C(/C=C/c1ccc(O)c(O)c1)O[C@@H]1C[C@](O)(C(=O)O)C[C@@H](O)[C@H]1O was tested, and the Activity [1] was “inactive”, the Activity [2] was “inactive” and the Activity [3] was “inactive”.

For CCCC[C@@H]1OC(=O)c2ccccc21 [(3S)-BUTYLPHTHALIDE], the Activity [1] was 73.9%.

For CC(=O)OC[C@H]1O[C@@H](Oc2cc(O)c3c(=O)cc(-c4ccc(O)c(O)c4)oc3c2)[C@H](O)[C@@H](O)[C@@H]1O, the Activity [2] was “inactive” and the Activity [3] was “inactive”.

In the case of O=C(O)[C@H]1O[C@@H](Oc2cc(O)c3c(=O)cc(-c4ccc(O)c(O)c4)oc3c2)[C@H](O)[C@@H](O)[C@@H]1O, the Activity [1] is reported as 80.9%, the Activity [2] is reported as “inactive” and the Activity [3] is reported as “inactive”.
